Results taken from patent US20060029995A1, “Novel class of metacaspases” (Vlaams Interuniversitair Instituut Voor Biotechnologie VZW, priority 2003, published 2006).
Read-outs that look alike come from different tables or passages of the source. Starred links: 1 amine or outer side, 2 acyl side, 3 side chain; linkers in the order of their positions; H or OH if unused. Non-standard residues stand in square brackets, D forms with d. Residues, ends and D or L forms follow the SMILES beside them. *: point of attachment. Sta = CC(C)C[C@H](N)[C@@H](O)CC(=O)O; AMC = Cc1cc(=O)oc2cc(N*)ccc12; Isovaleryl = CC(C)CC(=O)*; code Z = not defined here; Cbz = O=C(OCc1ccccc1)*; Boc = CC(C)(C)OC(=O)*; CO = O=C([*:1])[*:2]; CH2F = FC*

Columns and labels:
[1] = test system: Lysates from 293T cells overexpressing metacaspases; assay: Caspase substrates incubated with lysates from 293T cells overexpressing metacaspases; format: biochemical, Arabidopsis thaliana
Description: For mammalian overexpression, cDNAs for metacaspases were cloned into pDEST26 (Invitrogen, Gaithersburg, Md., USA), resulting in an N-terminal HIS6-fusion under transcriptional control of the constitutive CMV promoter. Human embryonic kidney cells 293T were cultured in DMEM supplemented with 2 mM L-glutamine, 10% fetal calf serum, 106 U/i streptomycin, […] penicillin and 0.4 mM sodium pyruvate. 5×10^5 cells (6 well plate) were seeded and next day transfected using the calcium phosphate method as described previously (Van de Craen et al., 1998).
Lysates from 293T cells overexpressing metacaspases were also incubated with different synthetic fluorigenic substrates for caspases, namely acetyl-Asp-Glu-Val-Asp-aminomethylcoumarin (Ac-DEVD-amc), acetyl-Ile-Glu-Thr-Asp-aminomethylcoumarin (Ac-IETD-amc), Acetyl-Leu-Glys-His-Asp-aminomethylcoumarin (Ac-LEHD-amc), acetyl-Trp-Glu-His-Asp-aminomethylcoumarin (Ac-WEHD-amc), Acetyl-Tyr-Val-Ala-Asp-aminomethylcoumarin (Ac-YVAD-amc) and benzyloxycarbonyl-Val-Ala-Asp-aminomethylcoumarin (zVAD-amc).

[2] = biological target: T1, Atmc9 (Arabidopsis thaliana, UniProt Q9FYE1); format: biochemical; conditions: for inhibition / inactivation of Atmc9: no concentration stated; for inhibition of Atmc9 activity: at the millimolar range
T1 construct: it indeed consists of amino acids 184 to 325 (calculated mass 15427 Da); made in house; host or cells: E. coli BL21(DE3), pDEST17, Ni-NTA purified
T1 sequence (Q9FYE1 1-183 limits assumed): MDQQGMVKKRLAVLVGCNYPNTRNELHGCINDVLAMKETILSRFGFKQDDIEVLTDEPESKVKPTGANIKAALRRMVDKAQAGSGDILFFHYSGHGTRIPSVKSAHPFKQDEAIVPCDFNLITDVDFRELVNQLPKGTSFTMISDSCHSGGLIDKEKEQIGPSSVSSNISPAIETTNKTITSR
T1 sequence (Q9FYE1 184-325 limits assumed): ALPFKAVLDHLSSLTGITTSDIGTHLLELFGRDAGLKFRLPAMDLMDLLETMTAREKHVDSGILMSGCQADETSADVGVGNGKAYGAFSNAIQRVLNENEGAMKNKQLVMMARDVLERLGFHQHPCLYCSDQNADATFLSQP
Description: Assays were performed in 150 μl with 400 ng of purified Atmc9 and 50 μM substrate in an optimized metacaspase 9 assay buffer (50 mM MES pH 5.3, 10% (w/v) sucrose, 0.1% (w/v) 3-[(3-cholamidopropyl)dimethylammonio]-1-propanesulfonate [CHAPS], 10 mM DTT). Time-dependent release of free amido-4-methylcoumarin (AMC) was measured on a Cytofluor 4000 fluorescence microplate reader (PerSeptive Biosystems, Farmingham, Md., USA).
We also assessed the sensitivity of Atmc9 for several protease inhibitors, chelating agents, metal ions, and stabilizing agents in the GKR-ase assay (Table 2). […] To optimize the assay conditions for Atmc9 activity, several stabilizing agents were tested.
Percentage of the activity of recombinant Atmc9 in 50 mM MES (pH 5.3) and 10 mM DTT.

[3] = biological target: T1, Atmc9; assay: kcat/Km of artificial substrates of Atmc9; format: biochemical; conditions: summary of Table 1
Description: The activity assay buffer used was composed of 50 mM MES pH 5.3, 10% (w/v) sucrose, 0.1% (w/v) 3-[(3-cholamidopropyl)dimethylammonio]-1-propanesulfonate [CHAPS], 10 mM DTT.
Release of free AMC was determined in a time course using a FLUOstar Optima fluorescence plate reader (BMB Lab Technologies, Offenburg, Del.). After total hydrolysis of the substrates, kcatlKm was calculated using the following formula: kcat/Km=kobsIEt, where kobs is determined as the decrease per second of the natural logarithm of substrate left, and Et is the concentration of enzyme active sites in the reaction.

[4] = biological target: T2, metacaspase 3 (Arabidopsis thaliana, UniProt Q9FMG1); assay: Cleavage of fluorescent artificial substrates by purified metacaspase 3; format: biochemical; conditions: assay buffers of pHs ranging from 4.5 to 9.0 (MES 50 mM)
T2 construct: made in house; host or cells: bacterial production, pDEST17 (E. coli by the general method)
T2 sequence (Q9FMG1 1-362 R151K/L157V/V158I/Q177E): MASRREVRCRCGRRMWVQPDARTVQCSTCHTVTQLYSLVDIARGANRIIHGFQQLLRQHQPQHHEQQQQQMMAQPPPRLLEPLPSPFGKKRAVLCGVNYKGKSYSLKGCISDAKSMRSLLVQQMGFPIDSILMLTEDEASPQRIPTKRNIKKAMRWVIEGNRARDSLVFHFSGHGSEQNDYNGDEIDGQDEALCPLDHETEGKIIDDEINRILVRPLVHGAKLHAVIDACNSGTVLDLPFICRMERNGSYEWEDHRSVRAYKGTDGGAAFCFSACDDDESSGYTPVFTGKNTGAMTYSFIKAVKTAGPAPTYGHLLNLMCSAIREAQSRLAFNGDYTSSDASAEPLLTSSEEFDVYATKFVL
From the text: For generation of the prodomain deletion mutant of Arabidopsis thaliana metacaspase 3 (MC3ΔN), residues 1 to 91 were replaced by a methionine residue by PCR, using 5′-[…]-3′ (SEQ ID NO:43) as the forward primer and 5′-[…]-3′ (SEQ ID NO:17) as the reverse primer. 5′ extensions used for Gateway™ (Invitrogen) cloning were 5′-[…]-3′ (SEQ ID NO:44) for forward primers and 5′-[…]-3′ (SEQ ID NO:45) for reverse primers. For bacterial production, the cDNA's were cloned into the bacterial expression vector pDEST17™ (Invitrogen), resulting in the amino-terminal translational addition of the following HIS6 tag-containing sequence: […] (SEQ ID NO:37).
Activity of purified metacaspase 3 was tested with different fluorescent substrates in assay buffers of pHs ranging from 4.5 to 9.0 (MES 50 mM). The substrates tested were: Ac-DEVD-AMC, Z-VAD-AMC, Boc-GRR-AMC, Boc-GKR-AMC, Z-FR-AMC and H-AFK-AMC. Only Z-FR-AMC was cut by metacaspase 3.

Acetyl-Tyr-Val-Ala-Asp-aminomethylcoumarin (Ac-YVAD-{AMC}; SMILES CC(=O)N[C@@H](Cc1ccc(O)cc1)C(=O)N[C@H](C(=O)N[C@@H](C)C(=O)N[C@@H](CC(=O)O)C(=O)Nc1ccc2c(C)cc(=O)oc2c1)C(C)C) [Ac-YVAD-amc]
activity of lysates on synthetic fluorigenic caspase substrates [1]: no significant increase in activity

Z-VAD-fmk: caspase inhibitor; fmk, fluoromethyl ketone ({code Z}-Val-Ala-Asp-CH2F; reading uncertain; also: printed as Z-VAD-fmk)
Activity (%) ([2]; pH 5.3): 87%

CC(C)C[C@H](NC(=O)[C@@H](NC(=O)N[C@@H](Cc1ccccc1)C(=O)O)[C@@H]1CCN=C(N)N1)C(=O)N[C@H](C=O)Cc1ccccc1 [Chymostatin]
inhibition / inactivation of Atmc9 [2]: weak inhibitors | Activity (%) ([2]; pH 5.3): 33%

acetyl-Trp-Glu-His-Asp-aminomethylcoumarin (Ac-WEHD-{AMC}; SMILES CC(=O)N[C@@H](Cc1c[nH]c2ccccc12)C(=O)N[C@@H](CCC(=O)O)C(=O)N[C@@H](Cc1c[nH]cn1)C(=O)N[C@@H](CC(=O)O)C(=O)Nc1ccc2c(C)cc(=O)oc2c1) [Ac-WEHD-amc]
activity of lysates on synthetic fluorigenic caspase substrates [1]: no significant increase in activity

Acetyl-Leu-Glys-His-Asp-aminomethylcoumarin [Ac-LEHD-amc]
activity of lysates on synthetic fluorigenic caspase substrates [1]: no significant increase in activity

O=S(=O)(F)Cc1ccccc1 [PMSF]
inhibition / inactivation of Atmc9 [2]: no significant blocking capacity | Activity (%) ([2]; reagent 1 mM, % of activity of recombinant Atmc9 in 50 mM MES pH 5.3, 10 mM DTT): 86%

t-butyloxycarbonyl-Gly-Lys-Arg-7-amido-4-methylcoumarin (Boc-Gly-Lys-Arg-{AMC}; SMILES Cc1cc(=O)oc2cc(NC(=O)[C@H](CCCNC(=N)N)NC(=O)[C@H](CCCCN)NC(=O)CNC(=O)OC(C)(C)C)ccc12) [Boc-GKR-AMC]
quality as substrate for Atmc9 [3]: somewhat less good substrate | cleavage by metacaspase 3 [4]: No activity was detected

CC(=O)N[C@@H](CC(C)C)C(=O)N[C@@H](CC(C)C)C(=O)N[C@H](C=O)CCCNC(=N)N [Leupeptin]
inhibition of Atmc9 ([2]; at concentrations as low as 1 μM): strongly inhibited | Activity (%) ([2]; pH 5.3): 1%

Z-DEVD-cmk: caspase inhibitor; cmk, chloromethyl ketone
Activity (%) ([2]; pH 5.3): 94%

NC(=O)CI [Iodoacetamide]
inhibition of Atmc9 activity [2]: inhibited | Activity (%) ([2]; pH 5.3): 8%

benzyloxycarbonyl-Val-Ala-Asp-aminomethylcoumarin (Cbz-Val-Ala-Asp-{AMC}) [Z-VAD-AMC]
activity of lysates on synthetic fluorigenic caspase substrates [1]: no significant increase in activity | cleavage by metacaspase 3 [4]: No activity was detected

t-butyloxycarbonyl-Gly-Arg-Arg-7-amido-4-methylcoumarin (Boc-Gly-Arg-Arg-{AMC}) [Boc-GRR-AMC]
quality as substrate for Atmc9 [3]: good substrates | cleavage by metacaspase 3 [4]: No activity was detected

Z-YVAD-cmk: caspase inhibitor; cmk, chloromethyl ketone
Activity (%) ([2]; pH 5.3): 100%

C[C@H](CCC(=O)NCCC[N+](C)(C)CCCS(=O)(=O)[O-])[C@H]1CC[C@H]2[C@@H]3[C@H](O)C[C@@H]4C[C@H](O)CC[C@]4(C)[C@H]3C[C@H](O)[C@]12C [CHAPS, 3-[(3-cholamidopropyl)dimethylammonio]-1-propanesulfonate]
Activity (%) ([2]; pH 5.3): 127%

Aprotinin
inhibition / inactivation of Atmc9 [2]: no significant blocking capacity | Activity (%) ([2]; pH 5.3): 96%

CC(C)C[C@H](NC(=O)[C@H]1O[C@@H]1C(=O)O)C(=O)NCCCCN=C(N)N (relative stereo) [E-64, L-trans-epoxysuccinyl-leucylamide-(4-guanido)-butane]
inhibition / inactivation of Atmc9 [2]: no significant blocking capacity | Activity (%) ([2]; pH 5.3): 92%

CC(C)CC(=O)N[C@H](C(=O)N[C@H](C(=O)N[C@@H](CC(C)C)[C@@H](O)CC(=O)N[C@@H](C)C(=O)N[C@@H](CC(C)C)[C@@H](O)CC(=O)O)C(C)C)C(C)C [Pepstatin] (Isovaleryl-VV[Sta]A[Sta]-OH)
inhibition / inactivation of Atmc9 [2]: no significant blocking capacity | Activity (%) ([2]; pH 5.3): 97%

acetyl-Asp-Glu-Val-Asp-aminomethylcoumarin [Ac-DEVD-AMC]
activity of lysates on synthetic fluorigenic caspase substrates [1]: no significant increase in activity | cleavage by metacaspase 3 [4]: No activity was detected

Cc1ccc(S(=O)(=O)N[C@@H](Cc2ccccc2)C(=O)CCl)cc1 [TPCK, N^□-tosyl-L-phenylalanyl-chloromethyl ketone]
inhibition / inactivation of Atmc9 [2]: weak inhibitors | Activity (%) ([2]; pH 5.3): 35%

acetyl-Ile-Glu-Thr-Asp-aminomethylcoumarin (Ac-IETD-{AMC}; SMILES CC[C@H](C)[C@H](NC(C)=O)C(=O)N[C@@H](CCC(=O)O)C(=O)N[C@H](C(=O)N[C@@H](CC(=O)O)C(=O)Nc1ccc2c(C)cc(=O)oc2c1)[C@@H](C)O) [Ac-IETD-amc]
activity of lysates on synthetic fluorigenic caspase substrates [1]: no significant increase in activity

CC(C)[C@H](NC(=O)[C@H](CCCNC(=N)N)NC(=O)N[C@@H](Cc1ccccc1)C(=O)O)C(=O)N[C@H](C=O)CCCNC(=N)N [Antipain] ({Phe-CO}-Arg-Val-Arg-aldehyde)
Activity (%) ([2]; pH 5.3): 13%

OC[C@H]1O[C@@](CO)(O[C@H]2O[C@H](CO)[C@@H](O)[C@H](O)[C@H]2O)[C@@H](O)[C@@H]1O [Sucrose]
Activity (%) ([2]; pH 5.3): 121%

N=C(N)c1ccccc1 [Benzamidine]
inhibition of Atmc9 activity [2]: inhibited | Activity (%) ([2]; pH 5.3): 22%

B1: Soybean trypsin inhibitor: protease inhibitor (protein)
chain: DFVLDNEGNPLENGGTYYILSDITAFGGIRAAPTGNERCPLTVVQSRNELDKGIGTIISSPYRIRFIAEGHPLSLKFDSFAVIMLCVGIPTEWSVVEDLPEGPAVKIGENKDAMDGWFRLERVSDDEFNNYKLVFCPQQAEDDKCGDIGISIDHDDGTRRLVVSKNKPLVVQFQKLDKESL
inhibition / inactivation of Atmc9 [2]: no significant blocking capacity | Activity (%) ([2]; pH 5.3): 73%
